Data on three molecules can be found in patent US20170215419A1, “ANTHRANILAMIDE SEED TREATMENT COMPOSITIONS AND METHODS OF USE” (priority 2014, published 2017).

Series [1] concerns black cutworms. Put plainly: Cutworm mortality and residual control, leaf feeding bioassay on leaves from treated corn seed (Table 3). The format is in vivo, Agrotis ipsilon. The procedure: (§1) Efficacy of chlorantraniliprole against high pressure of black cutworms, and plant stand protection (15 DAP) was tested (FIG. 5). In addition, efficacy of chlorantraniliprole for healthier stand and longer seedling protection against black cutworms (9 DAI) was also tested (FIG. 6). See also Tables 3 and 4 for increased mortality rates of cutworms with chlorantraniliprole alone and in combination with other insecticides. Mortality of 3rd instar black cutworms, which were exposed to corn leaf samples in in-vivo leaf feeding bioassays, was recorded at specific evaluation dates. The leaf samples were collected from treated corn seed according to the treatment in Tables 3-4.
(§2) All treatments included a combination of fungicides (Fludioxonil, Mefenoxam, Azoxystrobin, Thiabendazole). Soil Texture was fine clay loam; insect species: Agrotis ipsilon; infestation: 2, 3rd instar larva/plant; Plot size: 6 rows×20 feet; Seeding rate: 39,000/acre; Experimental design: Randomized Complete Block (RCB); 9 trtms×4 rep.

For series [2], the system named is wireworm. Kind of series: Corn yield, stand and runts on fields with wireworm pressure (Tables 5, 6). As to conditions: for Yield bu/ac: 250 μg AI/seed. The series is classed as in vivo.
In series [3] the test system is wireworm. Put plainly: Field efficacy against wireworm and impact on corn yield, vigor and stand (FIG. 1, 2). The series is classed as in vivo. The procedure: Efficacy of chlorantraniliprole against wireworm (30 DAP) and impact on corn yield were tested (FIG. 1) based on data from 4 Locations. Unless indicated otherwise in this Example or in any other Example herein, “BASE ST” included Fludioxonil, Mefenoxam, Azoxystrobin, Thiabendazole (fungicides), Thiamethoxam (insecticide) and biological amendments (B. subtilis, and B. simplex). The BASE ST may also include other fungicides.
Efficacy of chlorantraniliprole was also tested against high wireworm pressure locations for plant vigor and yield and stand protection (FIG. 2 A-B). “FST” indicates fungicide seed treatment.
The chlorantraniliprole was applied at a concentration of 0.25 mg ai/seed and other commercially available insecticides and/or fungicides were applied at the labeled rates. […] In an embodiment, the BASE ST included thiamethoxam at 250 μg AI/seed.

A further series concerns wireworms. Put plainly: Growth chamber wireworm bioassay on treated corn seed (FIG. 9). The format is in vivo, Melanotus spp. As to conditions: 250 to 750 μg AI/seed; corn at V3-V4; vs untreated check. The method, then:
In addition, the efficacy of corn seed treated with chlorantraniliprole to protect seeds and seedlings from soil pests such as wireworms was determined at a growth chamber. A total of 8 repetitions were conducted and the following evaluations were observed:
Evaluations: 1. Emergence; 2. Wireworm damaged plants; 4. Wireworm mortality; 5. Fresh plan weight
Bioassays were conducted in a growth chamber in using field-collected Melanotus spp. wireworms. […] weighted wireworms were individually placed into plastic pots containing filtered field-collected soil and one corn seed for a total of 48 wireworms in 8 pots for each treatment The containers were maintained at 20±2° C., 40 to 70% RH, and a photoperiod of 10:14 (L:D), and were watered daily.
The following seed treatment combinations were used and the results are shown in FIG. 9: Chlorantraniliprole at 250 to 750 μg AI/seed; thiamethoxam (IST) at 250 μg AI/seed; and clothianidin (+Bacillus firmus 1-1582) at 1250 μg AI/seed.

Series [4] concerns black cutworms. Put plainly: Black cutworm mortality after 10 DAI, leaf feeding bioassay (Table 4). The format is in vivo, Agrotis ipsilon. The method, then: as §1
Series [5] has as its system black cutworms. Put plainly: Field efficacy against high pressure of black cutworms, plant stand protection (FIG. 5, 6). The format is in vivo, Agrotis ipsilon. The method, then:
as §1, §2

The subject of another series is white grub. Kind of series: Efficacy against white grub and impact on corn yield (FIG. 3, 4). The series is classed as in vivo, Japanese Beetle larvae. As to conditions: added to BASE ST, compared to BASE ST alone.
Where [6] appears, read: seed treatment 250 μg AI/seed, 3rd instar black cutworms on corn leaf samples.
Setting [7] is: seed treatment 250 μg AI/seed, residual control.
The mark [8] stands for this setting: seed treatment 500 μg AI/seed (clothianidin 500).
[9] abbreviates: Table 6, fields with constant wireworm pressure, N = 7.
Where [10] appears, read: added to BASE ST, compared to FST alone, high wireworm pressure.

Turning to `CNC(=O)c1cc(Cl)cc(C)c1NC(=O)c1cc(Br)nn1-c1ncccc1Cl` [Chlorantraniliprole, 3-bromo-N-[4-chloro-2-methyl-6-[(methylamino)carbonyl]phenyl]-1-(3-chloro-2-pyridinyl)-1H-pyrazole-5-carboxamide], the “Mortality % 12 DAP” value in the series with black cutworms [1] (setting [6]), in the series on black cutworms [1] (setting [8]) and with black cutworms [1] (seed treatment 750 μg AI/seed) was 100.00% in each case. The “Mortality % 39 DAP” value turned out to be 32.95% in the series on black cutworms [1] (setting [7]), 31.25% with black cutworms [1] (setting [8]) and 21.11% with black cutworms [1] (seed treatment 750 μg AI/seed). The Yield bu/ac in the series on wireworm [2] (Table 5, fields with wireworm pressure) was 172.3 bu/ac; with wireworm [2] (setting [9]), 164.3 bu/ac. The corn grain yield entry in the series with wireworm [2] (locations with wireworm infestations, chlorantraniliprole 250 to 750 μg AI/seed alone or with thiamethoxam 250 μg AI/seed) is reported as “increased corn grain yield”. Moreover, the corn yield result in the series with wireworm [3] (0.25 mg ai/seed added to BASE ST, compared to BASE ST alone) is given as “yield increase”. Also, the “wireworm count per 10 plants” value in the series on wireworm [3] (0.25 mg ai/seed added to BASE ST, compared to BASE ST alone, 30 DAP, 4 locations) is recorded as “significantly reduced”. Moreover, the plant vigor result in the series with wireworm [3] (setting [10]) is on record as “significantly increased”. Further, the stand protection result in the series with wireworm [3] (setting [10]) was “protected stand”. In the series with wireworm [3] (added to BASE ST, compared to FST alone, high wireworm pressure (FIG. 2A)), the yield entry is given as “increased significantly”. Further, in the series on wireworms, the fresh plant weight result is given as “significantly higher plant weight than the untreated check/control”. For the same molecule, the Mortality % in the series with black cutworms [4] (seed treatment 250 μg AI/seed), in the series on black cutworms [4] (setting [8]) and with black cutworms [4] (seed treatment 750 μg AI/seed) was 100.00% each time. In the series with black cutworms [5] (9 DAI (FIG. 6)), the “stand and seedling protection against black cutworms” value is “increased healthier stand and longer seedling protection”. Further, in the series with black cutworms [5] (compared to FST alone, black cutworm), the “reduction in plant mortality” value was found to be 62%. In addition, in the series on black cutworms [5] (high black cutworm pressure, 15 DAP), the “black cutworm damage to corn plants” value is listed as “significantly reduced”. Further, the grain yield result in the series with white grub is recorded as “increased grain yield”. In addition, the “white grub count per 10 plants” value in the series with white grub (30 DAP, 3 locations) is “significantly reduced”.

Turning to `CN/C(=N\[N+](=O)[O-])NCc1cnc(Cl)s1` [Clothianidin, reference compound], in the series with black cutworms [1] (setting [8]), the “Mortality % 12 DAP” value was determined as 97.92% and the “Mortality % 39 DAP” value was determined as 25.00%. Also, in the series on black cutworms [4] (setting [8]), the Mortality % came out at 93.75%.

Consider `CN1COCN(Cc2cnc(Cl)s2)/C1=N\[N+](=O)[O-]` [Thiamethoxam, reference compound], for which the “Mortality % 12 DAP” value with black cutworms [1] (setting [6]) worked out at 95.83%. The “Mortality % 39 DAP” value in the series with black cutworms [1] (setting [7]) turned out to be 31.25%. The molecule further came in with a Yield bu/ac with wireworm [2] (setting [9]) of 173.3 bu/ac. This molecule also displayed a runts with wireworm [2] (seedling stage, wireworms, each active at 250 μg AI/seed) of 8.8%. Moreover, the Mortality % with black cutworms [4] (seed treatment 250 μg AI/seed) is recorded as 22.92%.
